Laboratory results reported in ChEMBL document CHEMBL3885861, “Open TG-GATES”.

Species on record: Rattus norvegicus
Assay: Open TG-GATES - Regimen: Single
Format: toxicity, organism-based, Sprague-Dawley
Set-up: regimen Single, gender Male, age 6 weeks
Conditions: in vivo, po, 100 mg/kg, route gavage, dose level Low; for APTT / Bas / Eos / Fbg / Hb / Ht / Lym / MCH / MCHC / MCV / Mono / Neu / PT / Plat / RBC / Ret / WBC: tissue Blood; for KIDNEY_L / KIDNEY_R / KIDNEY_TOTAL: tissue Kidney; for LIVER: tissue Liver; for A/G / ALP / ALT / AST / BUN / CRE / Ca / Cl / DBIL / GLC / IP / K / LDH / Na / PL / RALB / TBIL / TC / TG / TP / gamma-GTP: tissue Plasma

COC1=CC(=O)C[C@@H](C)[C@]12Oc1c(Cl)c(OC)cc(OC)c1C2=O [GRISEOFULVIN]
TERMINAL_BW (3 h): 211.4 g
APTT (3 h): 18.7 s
Bas (3 h): 0%
Eos (3 h): 0.8%
Fbg (3 h): 213 mg/dL
Hb (3 h): 13 g/dL
Ht (3 h): 37.9%
Lym (3 h): 77%
MCH (3 h): 21.6 pg
MCHC (3 h): 34.3%
MCV (3 h): 63.2 fL
Mono (3 h): 2.8%
Neu (3 h): 19%
PT (3 h): 13 s
Plat (3 h): 121.7 x10_4/uL
RBC (3 h): 600 x10_4/ul
Ret (3 h): 8%
WBC (3 h): 116.5 x10_2/uL
KIDNEY_L (3 h): 0.9 g
KIDNEY_R (3 h): 1 g
KIDNEY_TOTAL (3 h): 1.9 g
LIVER (3 h): 9.4 g
A/G (3 h): 1.7
ALP (3 h): 1005.8 IU/L
ALT (3 h): 37.8 IU/L
AST (3 h): 66.8 IU/L
BUN (3 h): 10.2 mg/dL
CRE (3 h): 0.3 mg/dL
Ca (3 h): 10.9 mg/dL
Cl (3 h): 104.2 meq/L
DBIL (3 h): 0.2 mg/dL
GLC (3 h): 181.4 mg/dL
IP (3 h): 8.8 mg/dL
K (3 h): 3.7 meq/L
LDH (3 h): 130.4 IU/L
Na (3 h): 141.6 meq/L
PL (3 h): 164 mg/dL
RALB (3 h): 3.4 g/dL
TBIL (3 h): 0.3 mg/dL
TC (3 h): 80.6 mg/dL
TG (3 h): 131.4 mg/dL
TP (3 h): 5.4 g/dL
gamma-GTP (3 h): 0.8 IU/L
TERMINAL_BW (6 h): 209.8 g
APTT (6 h): 17.8 s
Bas (6 h): 0%
Eos (6 h): 1%
Fbg (6 h): 218 mg/dL
Hb (6 h): 13.3 g/dL
Ht (6 h): 38.8%
Lym (6 h): 75.6%
MCH (6 h): 22 pg
MCHC (6 h): 34.3%
MCV (6 h): 64.2 fL
Mono (6 h): 3%
Neu (6 h): 20%
PT (6 h): 13 s
Plat (6 h): 135.7 x10_4/uL
RBC (6 h): 604.8 x10_4/ul
Ret (6 h): 8%
WBC (6 h): 100.3 x10_2/uL
KIDNEY_L (6 h): 0.9 g
KIDNEY_R (6 h): 0.9 g
KIDNEY_TOTAL (6 h): 1.9 g
LIVER (6 h): 9.1 g
A/G (6 h): 1.8
ALP (6 h): 1063.4 IU/L
ALT (6 h): 38.6 IU/L
AST (6 h): 70.8 IU/L
BUN (6 h): 10 mg/dL
CRE (6 h): 0.4 mg/dL
Ca (6 h): 10.8 mg/dL
Cl (6 h): 103.4 meq/L
DBIL (6 h): 0.094 mg/dL
GLC (6 h): 200.4 mg/dL
IP (6 h): 9.7 mg/dL
K (6 h): 4 meq/L
LDH (6 h): 179.4 IU/L
Na (6 h): 141 meq/L
PL (6 h): 148.4 mg/dL
RALB (6 h): 3.4 g/dL
TBIL (6 h): 0.2 mg/dL
TC (6 h): 80.8 mg/dL
TG (6 h): 48.6 mg/dL
TP (6 h): 5.4 g/dL
gamma-GTP (6 h): 1.6 IU/L
TERMINAL_BW (9 h): 207.5 g
APTT (9 h): 18.1 s
Bas (9 h): 0%
Eos (9 h): 1%
Fbg (9 h): 222.6 mg/dL
Hb (9 h): 13.2 g/dL
Ht (9 h): 38.8%
Lym (9 h): 74.8%
MCH (9 h): 21.4 pg
MCHC (9 h): 34.1%
MCV (9 h): 62.9 fL
Mono (9 h): 2.2%
Neu (9 h): 22%
PT (9 h): 13.3 s
Plat (9 h): 123.9 x10_4/uL
RBC (9 h): 617.8 x10_4/ul
Ret (9 h): 7.5%
WBC (9 h): 96 x10_2/uL
KIDNEY_L (9 h): 1 g
KIDNEY_R (9 h): 0.9 g
KIDNEY_TOTAL (9 h): 1.9 g
LIVER (9 h): 8.6 g
A/G (9 h): 1.7
ALP (9 h): 994.6 IU/L
ALT (9 h): 34.4 IU/L
AST (9 h): 64.2 IU/L
BUN (9 h): 9.8 mg/dL
CRE (9 h): 0.3 mg/dL
Ca (9 h): 10.4 mg/dL
Cl (9 h): 103.6 meq/L
DBIL (9 h): 0.078 mg/dL
GLC (9 h): 199.6 mg/dL
IP (9 h): 10.3 mg/dL
K (9 h): 3.9 meq/L
LDH (9 h): 101 IU/L
Na (9 h): 142 meq/L
PL (9 h): 138.2 mg/dL
RALB (9 h): 3.4 g/dL
TBIL (9 h): 0.1 mg/dL
TC (9 h): 72.6 mg/dL
TG (9 h): 48 mg/dL
TP (9 h): 5.4 g/dL
gamma-GTP (9 h): 1.2 IU/L
TERMINAL_BW (24 h): 224.8 g
APTT (24 h): 19.6 s
Bas (24 h): 0%
Eos (24 h): 1%
Fbg (24 h): 222.4 mg/dL
Hb (24 h): 13.4 g/dL
Ht (24 h): 40.6%
Lym (24 h): 77.6%
MCH (24 h): 21.5 pg
MCHC (24 h): 33.1%
MCV (24 h): 64.8 fL
Mono (24 h): 3.2%
Neu (24 h): 17.4%
PT (24 h): 13.1 s
Plat (24 h): 117.6 x10_4/uL
RBC (24 h): 626.6 x10_4/ul
Ret (24 h): 7.2%
WBC (24 h): 107.9 x10_2/uL
KIDNEY_L (24 h): 1 g
KIDNEY_R (24 h): 1 g
KIDNEY_TOTAL (24 h): 2 g
LIVER (24 h): 10.8 g
A/G (24 h): 1.5
ALP (24 h): 926.8 IU/L
ALT (24 h): 41.8 IU/L
AST (24 h): 69.4 IU/L
BUN (24 h): 14.4 mg/dL
CRE (24 h): 0.4 mg/dL
Ca (24 h): 11 mg/dL
Cl (24 h): 103.4 meq/L
DBIL (24 h): 0.1 mg/dL
GLC (24 h): 215.8 mg/dL
IP (24 h): 8.5 mg/dL
K (24 h): 4.2 meq/L
LDH (24 h): 146.6 IU/L
Na (24 h): 141.8 meq/L
PL (24 h): 136.4 mg/dL
RALB (24 h): 3.3 g/dL
TBIL (24 h): 0.2 mg/dL
TC (24 h): 71 mg/dL
TG (24 h): 95 mg/dL
TP (24 h): 5.5 g/dL
gamma-GTP (24 h): 1.4 IU/L
